# Measurements from paper PMC9603750, “Chalcone-Acridine Hybrid Suppresses Melanoma Cell Progression via G2/M Cell Cycle Arrest, DNA Damage, Apoptosis, and Modulation of MAP Kinases Activity” (International Journal of Molecular Sciences, 2022).
# Columns and labels:
# [1] = tested on: MCF-10A; experiment: BrdU cell proliferation assay; type: cell-based; conditions: Homo sapiens; MCF-10A noncancer cell line
# [2] = tested on: A2058 melanoma cells; experiment: Western blot analyses of protein expression/phosphorylation; type: cell-based, human
# Description: (§1) Melanoma cells (A2058 and BLM) were treated with the tested chalcone 1C (10 μM and 20 μM) for 24, 48 and 72 h. Protein lysates from melanoma cells were prepared using a Laemmle lysis buffer containing glycerol, 1M Tris/HCl (pH 6.8), 20% sodium dodecyl sulfate (SDS), deionized H20, phosphatase and protease inhibitors (Sigma-Aldrich) and a sonication process. The protein concentrations were determined by the Pierce® BCA Protein Assay Kit (Thermo Scientific, Rockford, IL, USA) and measured by an automated Cytation™ 3 Cell Imaging Multi-Mode Reader (Biotek) at a wavelength of 570 nm. Proteins (25–40 μg of sample per well) were separated on SDS-PAA gel (12%) at 100 V for 3 h and transferred to a polyvinylidene difluoride (PVDF) membrane using the iBlot™ 2 Dry Blotting System (Invitrogen, Carlsbad, CA, USA). Membranes with transferred proteins were blocked in 5% BSA (bovine serum albumin; SERVA, Heidelberg, Germany) or 5% non-fat dry milk (Cell Signaling Technology®, Danvers, MA, USA) in TBS-Tween (pH 7.4) for 1 h at room temperature to minimise non-specific binding. Blocking was followed by incubation with primary antibodies (Table 6) overnight at 4 °C. The next day, membranes were washed in TBS-Tween (3 × 5 min) and incubated with the corresponding horseradish peroxidase (HRP)-conjugated anti-mouse or anti-rabbit secondary antibody for 1 h at room temperature. After incubation, membranes were washed again in TBS-Tween (3 × 5 min) and the expression of proteins was detected using the MF-ChemiBIS 2.0 Imaging System (DNR BIO-Imaging Systems, Jerusalem, Israel) with chemiluminescent ECL substrate (Thermo Scientific, Rockford, IL, USA). A densitometric analysis of Western Blot (WB) results was performed using the Image Studio™ Lite Software (LI-COR Biosciences, Lincoln, NE, USA). Equal loading was verified by using the β-actin antibody. Three independent analyses were performed.
# [3] = tested on: BLM melanoma cells; experiment: as above; type: cell-based, human
# Description: as §1
# [4] = tested on: A2058 melanoma cells; experiment: AO/PI viability assay (fluorescence microscopy); type: cell-based, human; conditions: A2058, 1C 10 μmol/L, 24, 48 and 72 h
# Description: (§2) The A2058 and BLM melanoma cells were seeded at a density of 5 × 10^4/well into 6-well culture plates. Twenty-four hours after seeding, A2058 cells were treated with chalcone 1C at 10 μmol/L concentration, BLM cells at 20 μmol/L concentration and both melanoma cell lines were treated with vehicle (DMSO) at the same concentrations. At 24, 48 and 72 h after treatment, the culture medium was removed, the cells were washed with washing buffer (PBS) and fixed with 4% paraformaldehyde (pH 7.2) for 30 min. In the next step, the paraformaldehyde was removed, the cells were washed with PBS and the staining solution (10 μg/mL acridine orange and 10 μg/mL propidium iodide, Sigma-Aldrich) was added to each well for 1 h incubation at room temperature in the dark. Finally, the staining solution was removed, the cells were washed with PBS and apoptosis was observed using an automated Cytation™ 3 Cell Imaging Multi-Mode Reader (Biotek, Winooski, VT, USA).
# [5] = tested on: BLM melanoma cells; experiment: AO/PI viability assay (fluorescence microscopy); type: cell-based, human; conditions: 1C 20 μmol/L, 24, 48 and 72 h
# Description: as §2
# [6] = tested on: BLM; experiment: BrdU cell proliferation assay; type: cell-based, human
# Description: (§3) The BrdU Cell Proliferation Assay is based on the detection of BrdU (5-bromo-2′-deoxyuridine) incorporated into the newly synthesized DNA during the replication process in proliferating cells.
# (§4) The A2058 (5 × 10^3/well) and BLM (5 × 10^3/well) melanoma cells were plated in a 96-well culture plate in 80 μL suitable medium. Twenty-four hours after cell seeding, different concentrations of the chalcone 1C were added ranging from 5–20 μmol/L. After 48 h of treatment, BrdU labelling solution was added to melanoma cells and incubated for another 24 h at 37 °C followed by fixation and incubation with anti-BrdU peroxidase conjugate solution for an additional 90 min in the dark at room temperature. Cells were then washed 3× with washing solution and incubated with TMB (tetramethylbenzidine) substrate solution (all Roche, Basel, Switzerland) for 5 to 30 min according to colour intensity. Finally, the stop solution (25 μL 1 M H2SO4) was added, and the incorporated BrdU was detected with an automated Cytation™ 3 Cell Imaging Multi-Mode Reader (Biotek, Winooski, VT, USA) at 450 nm. Three independent analyses were performed.
# [7] = tested on: A2058; experiment: BrdU cell proliferation assay; type: cell-based, human
# Description: as §3, §4
# [8] = tested on: A2058 melanoma cells; experiment: Flow cytometric analysis of mitochondrial membrane potential (TMRE); type: cell-based, human; conditions: A2058, 1C 10 μmol/L, 24, 48 and 72 h
# Description: (§5) The A2058 and BLM melanoma cells were seeded 1 × 10^6 in Petri dishes with complete growth medium and cultivated for 24 h. After cell cultivation, the A2058 cells were treated with chalcone 1C at 10 μmol/L concentration, BLM cells at 20 μmol/L concentration and both melanoma cell lines were treated with DMSO as the negative control at the same concentrations for 24, 48 and 72 h. Adherent and floating cells were harvested, pelleted by centrifugation at 1200 rpm for 5 min. Pellets were resuspended in washing buffer (PBS) and divided for a particular analysis. Afterwards, cells were prepared according to assay kit protocols or fixed with cold 4% paraformaldehyde (15 min) and permeabilized with 90% methanol (10 min on ice) with washing steps (PBS) and stained prior to analysis (Table 5) for 15 min in the dark at room temperature. Fluorescence was detected using a BD FACSCalibur^TM Flow Cytometer (Becton Dickinson, San Jose, CA, USA).
# [9] = tested on: BLM melanoma cells; experiment: as above; type: cell-based, human; conditions: 1C 20 μmol/L, 24, 48 and 72 h
# Description: as §5
# [10] = A2058, 1C 10 μmol/L, 24, 48 and 72 h
# [11] = 1C 20 μmol/L, maximum after 72 h
compound,measurement,setting,value
"COc1cccc(OC)c1C(=O)/C=C/c1c2ccccc2nc2ccccc12 [Compound 1C, (2E)-3-(acridin-9-yl)-1-(2,6-dimethoxyphenyl)prop-2-en-1-one]",IC50,[1],32.9 ± 1.56 µM
same,Levels of antiapoptotic protein Bcl-xL (WB),"[2]; A2058, 1C 10 μmol/L",decreased levels
same,Phosphorylation of Bad (WB),"[2]; A2058, 1C 10 μmol/L",increasing up to 48 h
same,Phosphorylation of Bcl-2 (WB),"[2]; A2058, 1C 10 μmol/L",increased in A2058 up to 48 h and decreased at 72 h
same,Phosphorylation of Chk1 (WB),"[2]; A2058, 1C 10 μmol/L, 24, 48 (maximum) and 72 h",significantly induced
same,Levels of cleaved PARP (89 kDa) (WB),[2]; [10],significantly increased
same,Total and phosphorylated p53 protein (WB),[2]; [10],significant increase
same,Expression of p21 protein (WB),"[2]; A2058, 1C 10 μmol/L, after 24 and 48 h",significant increase
same,Phospho-JNK (WB),"[2]; A2058, 1C 10 μmol/L, all tested timepoints",significantly increased
same,Phosphorylated form of p38 MAPK (WB),"[2]; A2058, 1C 10 μmol/L, mainly after 48 h",significantly increased
same,"Expression of α-, α1C- and β-tubulin (WB)","[2]; A2058, 1C 10 μmol/L, maximum after 48 and 72 h",significant upregulation
same,Phosphorylation of ERK1/2 (WB),"[2]; A2058, 1C 10 μmol/L, maximum after 48 h",significantly increased
same,Phosphorylated cyclin B1 (WB),"[2]; A2058, 1C 10 μmol/L, maximum after 72 h",significant downregulation
same,Amounts of proapoptotic protein Bax and Bad (WB),"[2]; A2058, 1C 10 μmol/L, maximum at 48 h",significantly increased
same,Total Bcl-2 protein (WB),"[2]; A2058, 1C 10 μmol/L, up to 48 h",upregulated
same,Expression of p21 protein (WB),[3]; 1C 20 μmol/L,showed an increase and maintained a trend
same,Levels of antiapoptotic protein Bcl-xL (WB),[3]; 1C 20 μmol/L,decreased levels
same,Phosphorylation of Bad (WB),[3]; 1C 20 μmol/L,increasing up to 48 h
same,Phosphorylation of Bcl-2 (WB),[3]; 1C 20 μmol/L,increased up to the 72 h time point
same,Phosphorylation of Chk1 (WB),[3]; 1C 20 μmol/L,consilient trend of Chk1 phosphorylation
same,Phosphorylation of ERK1/2 (WB),[3]; 1C 20 μmol/L,consilient trend of ERK1/2 phosphorylation
same,Total Bcl-2 protein upregulated (WB),[3]; 1C 20 μmol/L,it was not
same,p53 phosphorylation (WB),[3]; 1C 20 μmol/L,phosphorylation increased late on 72 h
same,Levels of cleaved PARP (89 kDa) (WB),"[3]; 1C 20 μmol/L, 24, 48 and 72 h",significantly increased
same,Total p53 protein (WB),"[3]; 1C 20 μmol/L, 24, 48 and 72 h","maintenanted on basic levels as DMSO treated controls, with little decrease at 24 h"
same,Phospho-JNK (WB),"[3]; 1C 20 μmol/L, all tested timepoints",significantly increased
same,Phosphorylated form of p38 MAPK (WB),"[3]; 1C 20 μmol/L, mainly after 48 h",significantly increased
same,Expression of α1C-tubulin (WB),[3]; [11],upregulation
same,Phosphorylated cyclin B1 (WB),[3]; [11],significant downregulation
same,Amounts of proapoptotic protein Bax and Bad (WB),"[3]; 1C 20 μmol/L, maximum at 48 h",significantly increased
same,Expression of α- and β-tubulin (WB),"[3]; 1C 20 μmol/L, time-dependent",significant downregulation
same,Proliferation and viability (AO/PI staining),[4],significant decrease in proliferation and viability
same,Proliferation and viability (AO/PI staining),[5],significant decrease in proliferation and viability
same,IC50,"[6]; Homo sapiens, BLM, 72 h incubation",16.51 ± 0.01 µM
same,"Selectivity index, BLM (BrdU)","[6]; MCF-10A vs BLM, calculated on the basis of BrdU results",1.99
same,IC50,"[7]; Homo sapiens, A2058, 72 h incubation",8.4 ± 0.05 µM
same,"Selectivity index, A2058 (BrdU)","[7]; MCF-10A vs A2058, calculated on the basis of BrdU results",3.9
same,Cells with reduced mitochondrial membrane potential (MMP),[8],significant increase
same,Cells with reduced mitochondrial membrane potential (MMP),[9],significant increase
